Experimental data as given in paper PMC8950995, “Identification and Functional Analysis of Glutathione S-Transferases from Sitophilus zeamais in Olfactory Organ” (Insects, 2022).

Target: T1, SzeaGSTd1 (Sitophilus zeamais, UniProt A0A8F0D7V2)
T1 sequence (A0A8F0D7V2 22-247): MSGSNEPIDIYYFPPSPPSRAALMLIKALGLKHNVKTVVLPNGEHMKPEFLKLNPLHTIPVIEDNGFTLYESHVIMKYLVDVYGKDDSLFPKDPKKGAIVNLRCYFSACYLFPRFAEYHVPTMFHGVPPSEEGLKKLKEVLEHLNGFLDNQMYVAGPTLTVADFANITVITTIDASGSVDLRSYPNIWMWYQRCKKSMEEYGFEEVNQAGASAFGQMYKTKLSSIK
Assay: GSH conjugation, absorbance at […] nm, Michaelis-Menten
Assay type: biochemical
Details: 1 mM GSH, 100 mM phosphate pH 7.2

O=[N+]([O-])c1ccc(Cl)c([N+](=O)[O-])c1 [CDNB, 1-chloro-2,4-dinitrobenzene]
Km: 420 ± 40 µM
